In US12448433B2, “Human ApoB100 epitopes, methods and uses for modulating inflammatory responses, and treating adverse cardiovascular events, disease and atherosclerosis” (LA JOLLA INSTITUTE FOR ALLERGY AND IMMUNOLOGY, priority 2015, dated 2025):

What was measured:
DPB1*03:01 = assay: Peptide binding to HLA-DP allele, competition assay; design: species or system human
Source text: (§1) Peptide binding to MHC-II requires anchor residues in certain positions and thus can be predicted using computer algorithms. Affinity can be measured experimentally using a competition assay (1). Both are excellent screening tools. However, affinity must be measured separately for each MHC-II allele. Humans express molecules encoded in four different MHC-II loci, denominated HLA-DRB1, DRB3/4/5, DP and DQ. Allelic variation is large, and most people are heterozygous at each locus, thus expressing up to 8 relevant MHC-II alleles. CD4 T cell responses strictly require that the antigenic peptide binds to the relevant MHC-II.
(§2) To identify peptides that could potentially be used in human patients, 30 peptides were screened for binding to 26 HLA alleles by competition assay.

DPB1*05:01 = assay: as above; design: species or system human
Source text: as §1, §2

DPB1*14:01 = assay: as above; design: species or system human
Source text: as §1, §2

DQB1*05:01 = assay: Peptide binding to HLA-DQ allele, competition assay; design: species or system human
Source text: as §1, §2

DPB1*02:01 = assay: Peptide binding to HLA-DP allele, competition assay; design: species or system human
Source text: as §1, §2

DPB1*04:02 = assay: as above; design: species or system human
Source text: as §1, §2

DPB1*04:01 = molecular target: T1, DPB1*04:01 (Homo sapiens, UniProt P04440); assay: as above
T1 sequence (P04440 30-258): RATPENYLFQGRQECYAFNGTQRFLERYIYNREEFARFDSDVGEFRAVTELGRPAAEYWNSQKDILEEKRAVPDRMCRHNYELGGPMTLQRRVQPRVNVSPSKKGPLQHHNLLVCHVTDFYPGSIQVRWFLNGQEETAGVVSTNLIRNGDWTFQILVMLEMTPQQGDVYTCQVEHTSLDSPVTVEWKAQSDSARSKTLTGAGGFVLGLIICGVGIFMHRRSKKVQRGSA
T1 sequence (P20036 29-260 partner): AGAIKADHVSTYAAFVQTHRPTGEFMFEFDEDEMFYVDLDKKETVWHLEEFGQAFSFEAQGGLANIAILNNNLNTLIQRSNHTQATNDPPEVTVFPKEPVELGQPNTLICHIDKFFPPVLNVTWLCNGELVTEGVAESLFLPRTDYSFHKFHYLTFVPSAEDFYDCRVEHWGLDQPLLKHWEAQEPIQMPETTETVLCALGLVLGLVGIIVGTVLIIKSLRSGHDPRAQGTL
Source text: as §1, §2

DQB1*06:02 = assay: Peptide binding to HLA-DQ allele, competition assay; design: species or system human
Source text: as §1, §2

DRB5*01:01 = DRB5*01:01 (Homo sapiens, UniProt P01903+Q30154); assay: Peptide binding to HLA-DR allele, competition assay
Source text: as §1, §2

atherosclerotic plaque = assay: Peptide immunization in atherosclerosis model (ApoE−/− mice on western diet); assay type: in vivo, mouse; conditions: immunization in CFA and 4×IFA
DRB4*01:01 = DRB4*01:01 (Homo sapiens, UniProt P01903+P13762, G164S); assay: Peptide binding to HLA-DR allele, competition assay
Source text: as §1, §2

Row | Compound | IC50 (DPB1*03:01) [nM] | IC50 (DPB1*05:01) [nM] | IC50 (DPB1*14:01) [nM] | IC50 (DQB1*05:01) [nM] | IC50 (DPB1*02:01) [nM] | IC50 (DPB1*04:02) [nM] | IC50 (DPB1*04:01) [nM] | IC50 (DQB1*06:02) [nM] | IC50 (DRB5*01:01) [nM] | atherosclerotic plaque in the aortic root by serial sections (atherosclerotic plaque) | atherosclerotic plaque in the whole aorta by en face staining (atherosclerotic plaque) | IC50 (DRB4*01:01) [nM]
1 | CSCC[C@H](NC(=O)[C@@H](NC(=O)[C@H](Cc1ccccc1)NC(=O)[C@@H]1CCCN1C(=O)[C@H](C)NC(=O)[C@H](CCSC)NC(=O)[C@@H](NC(=O)[C@H](CO)NC(=O)[C@H](CCCNC(=N)N)NC(=O)[C@H](Cc1ccccc1)NC(=O)[C@@H](NC(=O)[C@H](CC(N)=O)NC(=O)[C@H](CO)NC(=O)[C@H](Cc1ccccc1)NC(=O)[C@@H](N)Cc1c[nH]cn1)C(C)C)C(C)C)[C@@H](C)O)C(=O)O [Peptide 3563.0010] | 8 | 94 | 799 | 5570 | – | – | – | – | – | – | – | –
2 | CC[C@H](C)[C@H](NC(=O)[C@H](CC(C)C)NC(=O)[C@H](CO)NC(=O)[C@@H](NC(=O)[C@@H](NC(=O)[C@@H](N)CCCCN)[C@@H](C)CC)C(C)C)C(=O)N[C@@H](CCCCN)C(=O)N[C@@H](CC(N)=O)C(=O)N[C@@H](CC(C)C)C(=O)N[C@@H](CC(C)C)C(=O)N[C@H](C(=O)N[C@@H](C)C(=O)N[C@@H](CC(C)C)C(=O)N[C@@H](CCCCN)C(=O)N[C@@H](CC(=O)O)C(=O)O)C(C)C [Peptide 3563.0028] | – | – | 1800 | 124 | 657 | 155 | 78 | 1460 | 14 | – | – | –
3 | CC[C@H](C)[C@H](NC(=O)[C@H](CC(C)C)NC(=O)[C@H](CC(N)=O)NC(=O)[C@@H](NC(=O)[C@@H](NC(=O)[C@H](Cc1ccccc1)NC(=O)[C@H](Cc1c[nH]cn1)NC(=O)[C@H](CCCCN)NC(=O)[C@@H](NC(=O)[C@@H](N)Cc1c[nH]cn1)C(C)C)C(C)C)[C@@H](C)CC)C(=O)NCC(=O)N[C@@H](CC(=O)O)C(=O)N[C@@H](Cc1ccccc1)C(=O)N[C@@H](CCC(=O)O)C(=O)N[C@H](C(=O)O)C(C)C [Peptide 3563.0014] | – | 818 | 12200 | 3.7 | 58 | 148 | 7 | 13600 | – | – | – | –
4 | CC[C@H](C)[C@H](NC(=O)[C@H](CCCCN)NC(=O)CN)C(=O)N[C@@H](CC(=O)O)C(=O)N[C@@H](Cc1ccccc1)C(=O)N[C@@H](CC(C)C)C(=O)N[C@@H](CC(N)=O)C(=O)N[C@@H](CC(N)=O)C(=O)N[C@@H](Cc1ccc(O)cc1)C(=O)N[C@@H](C)C(=O)N[C@@H](CC(C)C)C(=O)N[C@@H](Cc1ccccc1)C(=O)N[C@@H](CC(C)C)C(=O)N[C@@H](CO)C(=O)N1CCC[C@H]1C(=O)O [Peptide 3563.0019] | – | 424 | 6510 | – | 456 | – | – | 495 | 57 | – | – | –
5 | CC[C@H](C)[C@H](NC(=O)[C@H](CC(C)C)NC(=O)[C@@H](N)Cc1ccccc1)C(=O)N[C@@H](Cc1ccc(O)cc1)C(=O)N[C@H](C(=O)N[C@H](C(=O)N[C@@H](CCC(=O)O)C(=O)N[C@@H](CC(C)C)C(=O)N[C@@H](CC(C)C)C(=O)N[C@@H](CCCCN)C(=O)N[C@@H](CCCCN)C(=O)N[C@@H](CC(C)C)C(=O)N[C@@H](CCC(N)=O)C(=O)N[C@@H](CO)C(=O)N[C@H](C(=O)O)[C@@H](C)O)[C@@H](C)O)[C@@H](C)CC [Peptide 3563.0030] | – | 32 | – | 4760 | 96 | 8.6 | 215 | 5900 | – | – | – | –
6 | ovalbumin | – | – | – | – | – | – | – | – | – | not | not | –
7 | CC[C@H](C)[C@H](NC(=O)[C@@H](NC(=O)[C@@H](N)CC(C)C)[C@@H](C)CC)C(=O)N[C@@H](CC(N)=O)C(=O)N[C@@H](Cc1c[nH]c2ccccc12)C(=O)N[C@@H](CC(C)C)C(=O)N[C@@H](CCC(N)=O)C(=O)N[C@@H](CCC(=O)O)C(=O)N[C@@H](C)C(=O)N[C@@H](CC(C)C)C(=O)N[C@@H](CO)C(=O)N[C@@H](CO)C(=O)N[C@@H](C)C(=O)N[C@@H](CO)C(=O)N[C@@H](CC(C)C)C(=O)O [Peptide 3563.0015] | – | – | 9550 | – | 16300 | 2050 | 6190 | 1950 | – | – | – | 12
